Measured values reported in ChEMBL document CHEMBL3988442, “University of Dundee, Small-Polar-MMV Screening Library” (2021).

How the values were obtained:
[1] = microbe, parasite or virus in culture; details: Mycobacterium tuberculosis, 96 h, read-out: pIC50 (converted)
[2] = microbe, parasite or virus in culture; details: Mycobacterium tuberculosis, 72 h, read-out: pIC50 (converted)

SMILES | IC50 [1] [µM] | IC50 [2] [µM]
Cc1nn(CC(=O)N(C)C)c(=O)c2ccccc12 | > 501 | > 501
CCN(CC)CCS(=O)(=O)c1ccccc1 | > 501 | 300
CCOC(=O)N1CCN(Cc2nc(C3CC3)no2)CC1 | 109 | 93.9
O=C(c1cscn1)N1CCN(c2ccc(Cl)cn2)CC1 | 249 | 116
O=C(CCc1ccccc1)N1CCCNCC1 | > 501 | 192
OCCC1CCN(Cc2ccccc2)C1 (stereo not drawn) | > 501 | > 501
c1ccc(NCCNc2ccccn2)cc1 | 217 | 230
CN1CCc2nc(NC(=O)CC(C)(C)C)sc2C1 | 127 | 210
O=C(Nc1ccccn1)C1Cc2ccccc2O1 (stereo not drawn) | 277 | 268
CN(C)c1ccc(CNC(=O)C2CCCO2)cc1 (stereo not drawn) | 197 | 219
O=c1c2ccccc2cnn1CN1CCCC1 | > 501 | > 501
COc1cccc(CNc2nc(C)no2)c1 | > 501 | 180
O=S(=O)(CCN1CCC[C@H]1CO)c1ccccc1 | > 501 | 198
NCc1cccc(S(=O)(=O)NCc2cccc(F)c2)c1 | > 501 | 232
NC(=O)C1CCN(CCOc2ccc(Br)cc2)C1 (stereo not drawn) | > 501 | > 501
c1cc2c(cc1CNc1nnc(C3CC3)o1)OCCO2 | 179 | 151
Cc1cc(C(=O)N(C)C[C@H](O)CO)cc(Cl)c1Br | 51.9 | 403
CC1CCN(S(=O)(=O)NC(C)C(C)C)CC1 (stereo not drawn) | > 501 | 261
CCCN(CCO)CC(=O)N1CCCC(C)C1 (stereo not drawn) | > 501 | > 501
CN(Cc1ccc2c(c1)OCO2)C(=O)Cc1cccs1 | 239 | 199
O=S(=O)(NCc1nccs1)N1CCc2ccccc2C1 | 146 | 133
COCCN1CCCC(Nc2ccc(Cl)cn2)C1 (stereo not drawn) | 172 | 145

SMILES | IC50 [1] [µM] | IC50 [2] [µM]
CN(c1ccc(F)cc1)S(=O)(=O)N1CCCCC1 | 267 | 204
COc1cccc(N2CCC(N)C2)c1 (stereo not drawn) | 276 | 294
CC(C)(C)OC(=O)N1CCC(n2cc(N)cn2)CC1 | 287 | 202
Cc1cnn(CCNCc2cccc3c2OCO3)c1 | > 501 | 258
O=c1ccc(Br)cn1Cc1noc(C2CC2)n1 | 204 | 78.4
COc1ccc2c(c1)NCC(C)O2 (stereo not drawn) | 214 | 94.8
COc1cn(-c2ccccc2)nc1C(=O)NCC(C)C | 294 | 282
CN(CC(N)=O)Cc1ccccc1N1CCCC1 | > 501 | 278
CN1CCCN(Cc2cc(F)cc(F)c2)CC1=O | 211 | 169
COc1ccc(CNc2ccncc2F)cc1C#N | > 501 | > 501
CC(C)CC(NC(N)=O)C(=O)Nc1cc(F)cc(F)c1 (stereo not drawn) | > 501 | 239
CC[C@H](N)C(=O)N(C)Cc1cccc(OC(F)(F)F)c1 | > 501 | 199
Cc1cccc(C(=O)NCC(C)N2CCCC2)n1 (stereo not drawn) | > 501 | 306
NCc1cnn(-c2cccc(Cl)c2)c1 | 260 | 258
NCCc1ccc2cc[nH]c2c1 | > 501 | 212
CCCc1nnc(NCc2ccc(C)cn2)o1 | 212 | 138
COC(=O)C1CC(c2ccccc2)=NO1 (stereo not drawn) | > 501 | > 501
CC(C)c1ccoc1C(=O)N(C)c1cc(C#N)ccn1 | > 501 | 140
NCCNS(=O)(=O)c1ccc(-c2ccccc2)cc1 | 171 | 160
CNc1cc(CN(C)Cc2cccs2)ccn1 | 276 | 276
CNCC(=O)Nc1cc(Cl)c(OCCOC)c(Cl)c1 | > 501 | > 501
COc1ncccc1CNS(=O)(=O)c1cccc(Cl)c1 | 311 | 230

SMILES | IC50 [1] [µM] | IC50 [2] [µM]
Cc1nn(CCO)c(NCc2cccc(F)c2)c1C | > 501 | > 501
CCCn1c(O)nnc1SCc1cccc(OC)n1 | 436 | 256
NCc1ccc(NC(=O)c2ccccc2O)cc1 | > 501 | 159
O=C(Nc1cc[nH]n1)c1csc(I)c1 | > 501 | 193
CCNC(=O)C1CCCN(c2ccncc2Cl)C1 (stereo not drawn) | 281 | 129
NCc1ccnc(OCC(F)(F)F)c1 | 88.7 | 50
O=C(NCCNC(=O)C1CCCC1)c1ccccc1O | 402 | 229
O=C(NCCSCc1cccc(Cl)c1)C1CNCCO1 (stereo not drawn) | 259 | 266
CNCc1nc2c(s1)CCCC2 | 259 | 221
Cc1nc(COc2ccc(C(=O)OCC#N)cc2)no1 | > 501 | > 501
OCC(O)CSCc1ncc(-c2cccc(Cl)c2)o1 (stereo not drawn) | > 501 | 211
CC(C)NC(=O)c1ccc(N2CCCCC2=O)cc1 | > 501 | > 501
CCOCC(O)CSc1nccn1-c1cccc(F)c1 (stereo not drawn) | 290 | 189
CNC(=O)COc1cccc(OCC2CC2)c1 | 188 | > 501
Oc1cccc(CNc2cccnc2-n2cccn2)c1 | 74.1 | 222
O=C(C1Cc2cc(Cl)ccc2O1)N1CCOCC1 (stereo not drawn) | > 501 | > 501
CC(Nc1ccc(F)cc1)C(=O)N1CCCC1 (stereo not drawn) | 68.6 | 106
CCCC(=O)Nc1cc(C(=O)OC)cc(C(=O)OC)c1 | > 501 | 249
CCC(O)CN1CCN(c2ncccc2Br)CC1 (stereo not drawn) | > 501 | > 501
CC(C)(C)c1noc(CCC(=O)N2CCSCC2)n1 | > 501 | > 501
NC(=O)CCS(=O)(=O)CCN1CCCCCC1 | > 501 | 158
CCC(C)(C)NC(=O)c1nnn(-c2ccccc2)c1C | 282 | 311

SMILES | IC50 [1] [µM] | IC50 [2] [µM]
N[C@@H]1C[C@H]1c1c(F)cccc1F | > 501 | > 501
C[C@H](c1ccc(Cl)cc1)n1c(CCN)n[nH]c1=O | > 501 | 38.3
CN(C)c1ccc(Br)c(S(=O)(=O)NC2CCNC2)c1 (stereo not drawn) | 263 | 232
NC1CCN(c2ncc(C(F)(F)F)cc2Cl)C1 (stereo not drawn) | 83.4 | 123
COc1cc(OC)cc(N2CCC(N)C2)c1 (stereo not drawn) | 213 | 232
COc1ccnc(CN2CCCC2CSC)c1OC (stereo not drawn) | > 501 | 180
CCN(CC)c1ccc(C(=O)Nc2cc[nH]n2)cn1 | > 501 | 251
CCC1(CC)CCCN(C(=O)CS(=O)(=O)CC)CC1 | 50.9 | 72.7
COCCCOc1ccc2c(c1)OCCO2 | 109 | 92.8
O=C(CSc1cnn[nH]1)N1CCc2ccccc2C1 | > 501 | > 501
COCCN1CCN(CCS(=O)(=O)C(F)(F)F)CC1 | 293 | 131
CC1(C)Oc2ccc(NC(=O)C3CCOC3)cc2O1 (stereo not drawn) | 261 | 289
Fc1ccc(NCC2CCC3(CC2)OCCO3)nc1 | 205 | 264
Cc1cc(S(=O)(=O)NC(CN)C2CC2)c(F)cc1F (stereo not drawn) | 18.9 | > 501
CCOc1ccc(CNS(=O)(=O)N(C)C)cc1C | > 501 | 262
O=C(Nc1ccnc(CO)c1)c1ccc(F)cc1I | 433 | 367
CCS(=O)(=O)N(C)C(=O)CCc1c[nH]c2ccccc12 | 97.3 | 44.8
COc1ccc(NC(=O)NC(C)(C)C(C)(C)O)cc1 | > 501 | 186
CN(CC1COc2ccccc2O1)C(=O)C1CCC1 (stereo not drawn) | 173 | 182
CC1CCCCN1S(=O)(=O)N1CCNCC1 (stereo not drawn) | > 501 | > 501
CCN(CCS(=O)(=O)c1ccccc1)CC(=O)N(C)C | 126 | 130
CCC(C)(C)NC(=O)c1ccn(-c2ccccc2F)n1 | 350 | 361

SMILES | IC50 [1] [µM] | IC50 [2] [µM]
O=C(CNCC1CC1)Nc1ccc(F)cc1 | > 501 | 215
CS(=O)(=O)NCc1ccnc(Oc2ccc(F)cc2)c1 | > 501 | 154
COc1cc(CNC(=O)C(C)OCC(C)C)ccn1 (stereo not drawn) | > 501 | > 501
CC(C)CC(O)CNC(=O)c1cc(F)ccc1F (stereo not drawn) | 57.2 | 238
Cc1[nH]ncc1C(=O)NCCCSCC(C)C | > 501 | 102
NC1CCN(c2ccccc2OC(F)F)C1 (stereo not drawn) | > 501 | 135
CCOc1cccc(CN(C)S(=O)(=O)c2cccs2)n1 | 191 | 144
CC(C)(C)OC(=O)N1CCCC1CN (stereo not drawn) | 207 | 368
COc1ccc(-c2nc(CCN)co2)cc1 | 71.4 | 80.5
CC(C)n1ccc(CC(=O)N2CCCC2)n1 | > 501 | > 501
NC(=O)C1CCN(C(=O)CCc2ccc(Cl)cc2Cl)C1 (stereo not drawn) | 284 | 157
CCN1CCCC1CNC(=O)c1cccc(C)n1 (stereo not drawn) | > 501 | > 501
COCC(C)Oc1cc(C)ccc1CN (stereo not drawn) | 228 | 149
O=C(CNCC1CC1)Nc1ccccc1 | > 501 | 171
O=C(CC1C=CCC1)N1CCN(Cc2ccco2)CC1 (stereo not drawn) | 228 | 184
COc1cccc(CN(C)C(=O)c2occc2C)n1 | 279 | 188
CN1CCN(S(=O)(=O)N2CCCC2)Cc2ccccc21 | 271 | 155
NCCNS(=O)(=O)c1cccc(I)c1 | > 501 | 326
CCCN(CCC(=O)NC(=O)NC)CC1CCCCO1 (stereo not drawn) | 240 | 93.8
CN(C)S(=O)(=O)N1CCC(Oc2ccccc2Cl)CC1 | 232 | 343
COc1cccc(CNc2ccccc2CO)n1 | > 501 | > 501
